{"source": "paper PMC4105567", "about": "“Aurora Kinases as Druggable Targets in Pediatric Leukemia: Heterogeneity in Target Modulation Activities and Cytotoxicity by Diverse Novel Therapeutic Agents” (PLoS ONE, 2014)", "key": {"SEM B-ALL cell line": {"tested_on": "SEM B-ALL cell line", "assay": "Cytotoxicity assay, SEM", "assay_type": "cell-based", "conditions": "Homo sapiens, 96 h, four days in culture, Alamar blue assay or automated microscopy, ± SD, three experiments", "experimental": "(§1) Cell lines were cultured in Opti-MEM medium (Gibco, Life Technologies Corporation, Burlington, Ontario) supplemented with 10% heat inactivated fetal bovine serum (FBS) (Gibco), 100 units/ml penicillin and 100 units/ml streptomycin (Gibco) and 0.05 mM 2-mercaptoethanol (Sigma-Aldrich, Oakville, Ontario) in T25 flasks (Nalge Nunc, Rochester, New York) or T75 flasks (Corning Incorporated, Corning, New York). All cell cultures were maintained at 37°C in a humidified incubator with 5% CO2.\n(§2) For cytotoxicity profiling of Aurora kinase inhibitors against leukemia cell lines, inhibitors or vehicle control (DMSO, Sigma-Aldrich) were diluted in 100 µl of Opti-MEM per well in 96 well plates (Grenier Bio-One, Monroe, North Carolina) in triplicate at final concentrations ranging from 1×10^−6 to 10 µM. 1×10^4 cells per well were seeded and plates were incubated for 4 days. Following incubation for 4 days, cell survival was quantified by Alamar blue assay (Invitrogen) or automated inverted microscopy using the Celigo Cell Cytometer (Cyntellect, San Diego, California). […] During this period of incubation, the absorbance at 570–620 nm was measured (Opsys MR Plate Reader, Dynex Technologies, Chantilly, Virginia) at various time points, depending on the cell line or sample. Percent survival was calculated by comparing the absorbance ratio of the test well to the control well multiplied by 100%, as indicated in the following formula: […]\n(§3) For automated inverted microscopy, the number of cells in each well was determined using the direct cell counting application as described previously. Briefly, following adjustment of image acquisition settings for bright-field imaging, the wells containing cells and appropriate dilutions of inhibitors were individually scanned. Based on these images, analysis parameters, including intensity threshold and cell diameter, were modified for optimal inclusion of viable cells in treated and control wells. These parameters were applied for subsequent replicates involving the same leukemia cell line or sample. The percent survival was then calculated as a ratio of the number of cells in treated wells to the number of cells in control wells multiplied by 100%. Given that Aurora kinase inhibitors interfere with cytokinesis, cells that are committed to death may still contain enlarging but intact cytoplasmic content before the eventual loss of cytoplasmic membrane integrity. The accuracy of Alamar blue assay may be, in theory, affected by the timing of these events."}, "B1 B-ALL cell line": {"tested_on": "B1 B-ALL cell line", "assay": "Cytotoxicity assay, B1", "assay_type": "cell-based, human", "conditions": "four days in culture, Alamar blue assay or automated microscopy, ± SD, three experiments", "experimental": "as §1, §2, §3"}, "Molt-3 T-ALL cell line": {"tested_on": "Molt-3 T-ALL cell line", "assay": "Cytotoxicity assay, Molt-3", "assay_type": "cell-based, human", "conditions": "T-ALL cell line Molt-3, four days in culture, Alamar blue assay or automated microscopy, ± SD, three experiments", "experimental": "as §1, §2, §3"}, "Normal Lymphocytes": {"tested_on": "Normal Lymphocytes", "assay": "Cytotoxicity assay, normal lymphocytes", "assay_type": "cell-based, human", "conditions": "normal lymphocytes (control for non-leukemia cytotoxicity), four days in culture, ± SD, three experiments", "experimental": "(§4) These include B-ALL (Patient #1), relapsed AML (Patient #2), AML/CML (Patient #3), infant ALL (Patient #4), and initial ALL presenting with secondary AML (Patient #5). […] The diluted sample was then layered on a Ficoll-Paque (GE Healthcare, Piscataway, New Jersey) gradient at a 1∶2 ratio of Ficoll to diluted sample. Samples were then centrifuged 1800 rpm for 20 minutes at room temperature. The buffy coat was removed with a pipette and transferred to a new centrifuge tube and diluted with PBS. After an additional centrifugation at 1200 rpm, the white blood cell pellet was washed with PBS and centrifuged one last time. Cells were re-suspended in Opti-MEM and viable cells were counted using trypan blue (Invitrogen, Life Technologies Corporation, Burlington, Ontario) exclusion on a haemocytometer. An identical protocol was followed for the isolation of white blood cells, referred to as “normal lymphocytes” in the following paragraphs, from healthy volunteers. Samples grown in culture for up to six months were cultured in Opti-MEM medium supplemented with 10% heat inactivated FBS, penicillin/streptomycin and 2-mercaptoethanol.\nas §2, §3"}, "Bone Marrow Stroma": {"tested_on": "Bone Marrow Stroma", "assay": "Cytotoxicity assay, bone marrow stroma", "assay_type": "cell-based, human", "conditions": "bone marrow stroma (control for non-leukemia cytotoxicity), four days in culture, ± SD, three experiments", "experimental": "as §2, §3"}, "[1]": {"tested_on": "Patient #3 AML/CML primary leukemia cells", "assay": "Cytotoxicity assay, primary sample Patient #3", "assay_type": "cell-based, human", "conditions": "four days in culture, Alamar blue assay or automated microscopy, one complete study", "experimental": "as §4, §2, §3"}, "[2]": {"tested_on": "normal bone marrow derived CD34+ cells", "assay": "Hematopoietic colony forming cell assay", "assay_type": "cell-based, human", "conditions": "myeloid and erythroid colonies from CD34+ cells; for colony formation at 0.1–10 µM: 14 days", "experimental": "The hematopoietic colony forming cell assay was conducted based on a protocol outlined by StemCell Technologies (Vancouver, British Columbia, Canada). To begin, CD34^+ cells were isolated from residual normal bone marrow transplant specimens obtained after informed consent. Next, several concentrations of Aurora A Inhibitor I, Hesperadin, ZM447439 and AT9283 (0.01, 0.1, 1, 10 µM) and DMSO (Sigma-Aldrich, Oakville, Ontario) (10 µM) were added to separate tubes of MethoCult (StemCell Technologies), a methylcellulose matrix containing recombinant human cytokines stem cell factor (rh SCF), granulocyte macrophage colony-stimulating factor (rh GM-CSF), interleukin-3 (rh IL-3), granulocyte colony stimulating factor (rh G-CSF) and erythropoietin (rh EPO). Following the addition of CD34^+ cells at a final concentration of 5×10^3 cells per dish, the tubes were vortexed and allowed to stand for 5 minutes at room temperature. Next, the MethoCult mixtures were be dispensed into 35 mm dishes (Corning Incorporated, Corning, New York) through blunt end needles (StemCell Technologies) and 5 ml syringes (BD Biosciences, Mississauga, Ontario) at a volume of 1.1 ml per dish. The medium was evenly distributed across the surface of each dish by gentle tilting and rotation. The dishes were then placed in a 150 mm tissue culture dish (BD Biosciences) containing additional 35 mm dishes with sterile water to maintain humidity. The tissue culture dish was then placed at 37°C in a humidified incubator containing 5% CO2 for 14 days. The number of myeloid and erythroid derived colonies in both the treated and control dishes were counted and compared."}, "[3]": {"tested_on": "normal cells versus leukemia cell lines", "assay": "Comparison of cytotoxicity IC50 values, normal cells versus leukemia cell lines", "assay_type": "cell-based, human", "conditions": "normal lymphocytes and bone marrow stroma versus leukemia cell lines of Table 2", "experimental": "as §2, §3"}}}
{"smiles": "O=C(Nc1c[nH]nc1-c1nc2ccc(CN3CCOCC3)cc2[nH]1)NC1CC1", "note": "[AT9283]", "values": [{"measurement": "IC50", "setting": "SEM B-ALL cell line", "value": "40 ± 20", "unit": "nM"}, {"measurement": "IC50", "setting": "B1 B-ALL cell line; Homo sapiens, 96 h", "value": "60 ± 30", "unit": "nM"}, {"measurement": "IC50", "setting": "Molt-3 T-ALL cell line; Homo sapiens, 96 h", "value": 0.4, "unit": "nM"}, {"measurement": "IC50", "setting": "Normal Lymphocytes; Homo sapiens, Lymphocyte, 96 h", "value": "9000 ± 1000", "unit": "nM"}, {"measurement": "IC50", "setting": "Bone Marrow Stroma; Homo sapiens, 96 h", "value": "5000 ± 2000", "unit": "nM"}, {"measurement": "IC50", "setting": "[1]; Homo sapiens, 96 h", "value": 1000, "unit": "nM"}, {"measurement": "colony formation at 0.1–10 µM", "setting": "[2]", "value": "completely inhibited the formation of both types of colonies"}, {"measurement": "IC50 values for the normal cells compared with IC50 values for the leukemia cell lines (potential therapeutic window)", "setting": "[3]", "value": "higher than the IC50 values for the leukemia cell lines"}]}
{"smiles": "CCN1CCN(C(=O)Cc2ccc(Nc3ncc(F)c(Nc4ccc(C(=O)Nc5ccccc5Cl)cc4)n3)cc2)CC1", "note": "[Aurora A Inhibitor I]", "values": [{"measurement": "IC50", "setting": "B1 B-ALL cell line", "value": "700 ± 100", "unit": "nM"}, {"measurement": "IC50", "setting": "Molt-3 T-ALL cell line", "value": "300 ± 200", "unit": "nM"}, {"measurement": "IC50", "setting": "Normal Lymphocytes", "value": "3000 ± 500", "unit": "nM"}, {"measurement": "IC50", "setting": "Bone Marrow Stroma", "value": "4000 ± 500", "unit": "nM"}, {"measurement": "IC50", "setting": "[1]", "value": 5000, "unit": "nM"}, {"measurement": "concentration up to which colony formation was not affected", "setting": "[2]; 14 days in methylcellulose culture, tested 0.01, 0.1, 1, 10 µM", "value": "≤ 100", "unit": "nM"}, {"measurement": "IC50 values for the normal cells compared with IC50 values for the leukemia cell lines (potential therapeutic window)", "setting": "[3]", "value": "lower than the IC50 values for the normal cells, but not as pronounced"}]}
{"smiles": "CCS(=O)(=O)Nc1ccc2c(c1)/C(=C(/Nc1ccc(CN3CCCCC3)cc1)c1ccccc1)C(=O)N2", "note": "[Hesperadin]", "values": [{"measurement": "IC50", "setting": "SEM B-ALL cell line", "value": "1 ± 0.5", "unit": "nM"}, {"measurement": "IC50", "setting": "B1 B-ALL cell line; Homo sapiens, 96 h", "value": 0.007, "unit": "nM"}, {"measurement": "IC50", "setting": "Molt-3 T-ALL cell line; Homo sapiens, 96 h", "value": "< 0.001", "unit": "nM"}, {"measurement": "IC50", "setting": "Normal Lymphocytes; Homo sapiens, Lymphocyte, 96 h", "value": "2000 ± 1000", "unit": "nM"}, {"measurement": "IC50", "setting": "Bone Marrow Stroma; Homo sapiens, 96 h", "value": "2000 ± 900", "unit": "nM"}, {"measurement": "IC50", "setting": "[1]; Homo sapiens, 96 h", "value": 3000, "unit": "nM"}, {"measurement": "colony formation at 0.1–10 µM", "setting": "[2]", "value": "completely inhibited the formation of both types of colonies"}, {"measurement": "IC50 values for the normal cells compared with IC50 values for the leukemia cell lines (potential therapeutic window)", "setting": "[3]", "value": "higher than the IC50 values for the leukemia cell lines"}]}
